Results taken from publication PMC8617681 (Pharmaceuticals, 2021).

Tests used:
[1] = system: RET fusion-positive cancers; conditions: clinical phase 1 study; cited from earlier work
[2] = patients; cited from earlier work
[3] = molecular target: T1, human OATP1A2 (Homo sapiens, UniProt P46721); experiment: Cellular uptake in OATP1A2-overexpressing HEK293 cells; format: in vitro ADME; conditions: 5 µM, 2.5 min incubation, HEK293 OATP1A2
T1 construct: Werner Siegmund and Dr. Markus Keiser (University of Greifswald); host or cells: HEK293
T1 sequence (P46721 1-670): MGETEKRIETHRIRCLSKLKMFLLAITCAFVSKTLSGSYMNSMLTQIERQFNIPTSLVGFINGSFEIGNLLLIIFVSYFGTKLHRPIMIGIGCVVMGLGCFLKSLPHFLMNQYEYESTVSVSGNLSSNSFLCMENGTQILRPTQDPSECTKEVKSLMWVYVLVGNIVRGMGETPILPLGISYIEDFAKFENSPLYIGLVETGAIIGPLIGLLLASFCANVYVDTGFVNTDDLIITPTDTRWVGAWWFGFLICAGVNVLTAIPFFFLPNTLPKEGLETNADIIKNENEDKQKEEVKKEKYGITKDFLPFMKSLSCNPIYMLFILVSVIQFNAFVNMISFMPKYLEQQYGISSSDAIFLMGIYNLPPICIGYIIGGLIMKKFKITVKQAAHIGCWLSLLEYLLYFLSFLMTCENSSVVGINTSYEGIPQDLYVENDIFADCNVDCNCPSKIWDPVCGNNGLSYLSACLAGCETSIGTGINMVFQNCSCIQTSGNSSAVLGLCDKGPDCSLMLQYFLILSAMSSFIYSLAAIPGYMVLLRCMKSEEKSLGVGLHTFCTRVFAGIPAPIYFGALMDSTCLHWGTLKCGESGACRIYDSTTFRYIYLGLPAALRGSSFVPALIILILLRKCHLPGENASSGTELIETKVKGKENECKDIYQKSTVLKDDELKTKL
Method: HEK293 cells, vector-transfected or human (h)SLCO1A2, hSLCO1B1 or hSLCO1B3 cDNA-transfected were kind gifts from Prof. Werner Siegmund and Dr. Markus Keiser (University of Greifswald, Greifswald, Germany). All the HEK293 cell lines were maintained in DMEM supplemented with 10% (v/v) FBS, 1% penicillin–streptomycin mix at 37 °C in 5% (v/v) CO2 and 500 μg/mL G418. Cells were first seeded in 12-well plates [coated with 50 mg/L poly (l-lysine) and 50 mg/L poly (l-ornithine)] at a density of 1.0 × 10^5 cells/well. For the uptake study, in order to induce the expression of OATP transporters, the cell culture medium was replaced with culture medium supplemented with 5 mM sodium butyrate 24 h before performing the uptake assay.
The uptake transport study was performed as described previously. […] The Krebs–Henseleit solution was prepared from Krebs–Henseleit-buffer modified powder and supplemented with 25 mM NaHCO3 and 2.5 mM CaCl2 adjusted to pH 6.4 with 1 M HCL. At 2.5 min, the incubation buffer was removed, and uptake was terminated by adding 1 mL of ice-cold Krebs–Henseleit buffer, followed by two times washing with 1 mL of ice-cold Krebs–Henseleit buffer. […] The cellular protein amount was determined by the Bradford method using 10 μL of the cell lysates with bovine serum albumin as a standard.

## COc1ccc(CN2C3CC2CN(c2ccc(-c4cc(OCC(C)(C)O)cn5ncc(C#N)c45)cn2)C3)cn1 [selpercatinib]
[1]
  overall response rate: 77%
[2]
  AUC0–24h: 51,600 ng/mL*h
  average Cmax: 2980 ng/mL
[3]
  uptake compared to vector control cells: did not observe any significant increase in the uptake
